According to article PMC7522982, “PKIS deep dive yields a chemical starting point for dark kinases and a cell active BRSK2 inhibitor” (Scientific Reports, 2020):

Molecular target: T1, NLuc-BRSK2 in HEK293 cells (Homo sapiens, UniProt Q8IWQ3)
T1 construct: host or cells: HEK293
T1 sequence (Q8IWQ3 1-736): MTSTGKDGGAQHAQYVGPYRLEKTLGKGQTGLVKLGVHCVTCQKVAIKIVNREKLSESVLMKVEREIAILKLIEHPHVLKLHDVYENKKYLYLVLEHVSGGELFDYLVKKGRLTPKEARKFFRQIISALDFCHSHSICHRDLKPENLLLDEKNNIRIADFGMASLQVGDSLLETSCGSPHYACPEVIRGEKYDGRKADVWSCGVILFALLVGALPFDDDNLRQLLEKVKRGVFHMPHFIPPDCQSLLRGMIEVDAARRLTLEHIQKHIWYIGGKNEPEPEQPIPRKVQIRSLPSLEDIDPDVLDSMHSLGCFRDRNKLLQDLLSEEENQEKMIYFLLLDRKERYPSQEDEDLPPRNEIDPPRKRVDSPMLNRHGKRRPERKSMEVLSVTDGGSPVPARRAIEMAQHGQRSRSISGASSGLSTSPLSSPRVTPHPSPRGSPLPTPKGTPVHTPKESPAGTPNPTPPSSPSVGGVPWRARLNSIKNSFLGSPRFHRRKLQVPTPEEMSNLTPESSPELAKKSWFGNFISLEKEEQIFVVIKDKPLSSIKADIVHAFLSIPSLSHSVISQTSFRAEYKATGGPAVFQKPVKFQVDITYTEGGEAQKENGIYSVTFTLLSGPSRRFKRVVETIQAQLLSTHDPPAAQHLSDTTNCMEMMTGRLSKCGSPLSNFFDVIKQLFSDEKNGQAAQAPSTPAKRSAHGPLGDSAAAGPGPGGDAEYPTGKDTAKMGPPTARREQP
Test: BRSK2 NanoBRET cellular target engagement assay
Type: cell-based
Details: HEK293 cells transiently expressing NLuc-BRSK2; Tracer K5 1 μM; N = 3; read-out: BRSK2 NanoBRET data IC50
Protocol: Our interest in illuminating BRSK2 biology motivated further investigation of the cellular target engagement of BRSK2 by GW296115 using our NanoBRET assay. BRSK2 kinase was fused to 19-kDa luciferase (NLuc) at its N-terminus (NLuc–BRSK2) which was transiently expressed in HEK293 cells, and then incubated with a cell-permeable fluorescent energy transfer probe (tracer)[23].
NanoBRET assays were executed as described previously. Constructs for BRSK2 NanoBRET measurements were provided in kind by Promega. The N-terminal Nanoluciferase (NL)/BRSK2 fusion (NL-BRSK2) was encoded in pFN32K expression vector, including flexible Gly-Ser-Ser-Gly linkers between NL and BRSK2 (Promega). For cellular BRSK2 NanoBRET target engagement experiments, a 10 μg/mL solution of DNA in Opti-MEM without serum (Gibco) was prepared with 9 μg/mL of Carrier DNA (Promega) and 1 μg/mL of NL-BRSK2 to achieve a total volume of 1.05 mL. To this solution was then added 31.5 μL of FuGENE HD (Promega) to form a lipid:DNA complex, mixed by inversion 8 times, and incubated at room temperature for 20 min. The resulting transfection complex (1.082 mL) was next gently mixed with HEK293 cells (21 mL) suspended at a density of 2 × 10^5 cells/mL in DMEM containing 10% FBS.
After 24 h, media was removed via aspiration and 85 μL of room temperature Opti-MEM without phenol red (Gibco) was added to each well. […] Next, 5 μL (20 × working stock of NanoBRET Tracer K5 [20 μM] in Tracer Dilution Buffer (Promega N291B)) was added to each well with the exception of the “no tracer” control wells. Test compounds were prepared as concentrated stock solutions in 100% DMSO (Sigma) at a concentration of 10 mM. […] A volume of 10 μL of tenfold test compound stock solutions (final assay concentration of […]) was added to each well. For “no compound” and “no tracer” control wells, 10 μL of Opti-MEM plus DMSO (9 μL Opti-MEM plus 1 μL DMSO) was added to each well to achieve a final concentration of 1% DMSO.
After 2 h, plates were returned to room temperature over the course of 15 min. […] Next, 50 μL of the 3 × substrate/extracellular NL inhibitor stock was added to each well.
Test compounds were evaluated at 8 concentrations in competition with NanoBRET Tracer K5 in HEK293 cells transiently expressing the NL-BRSK2 fusion protein. Raw milliBRET (mBRET) values were obtained by dividing the acceptor emission values (600 nm) by the donor emission values (450 nm), and then multiplying by 1000. Averaged control values were used to represent complete inhibition (no tracer control: transfected cells in Opti-MEM + DMSO; tracer control: transfected cells in Opti-MEM + DMSO + Tracer K5 only), and were plotted alongside the raw mBRET values. The data with n = 3 biological replicates was first normalized and then fit using Sigmoidal, 4PL binding curve in Prism Software (version 8, GraphPad, La Jolla, CA, USA).

SMILES: COc1ccc2[nH]c3c4[nH]c5ccc(OC)cc5c4c4c(c3c2c1)C(=O)NC4=O [GW296115]
- IC50: 107 ± 28 nM
